Key:
[1] = tested on: Mouse; test: Analysis of times of locomotor activities; type: in vivo
From the text: The condition of the locomotor activity of an animal reflects the functional status of its central nervous system. The central stimulant drug can prominently increase the locomotor activity but decrease the exploratory behavior, and a certain dosage of antipsychotic drug can decrease the exploratory behavior without influencing the locomotor activity. A YLS-1A multi-functional mouse locomotor activity recorder is used to record the situation of locomotor activity of the mouse at different points of time after drug administration.

[2] = tested on: Mouse; test: Chronic emotional stress-response model (CSM) test, behaviors; type: in vivo, rat; conditions: CSM empty bottle stimulation, dosage 3 mg/Kg, n=10
[3] = tested on: Neurotransmitter in Serum of Rat; test: CSM test, level of neurotransmitter in serum; type: in vivo; conditions: dosage 3 mg/Kg
From the text: (§1) The chronic emotional stress-response model takes as an emotional stress-response resource an uncertain stimulation of drinking by an empty bottle, so as to investigate the influence which the emotional stress of 14 days exerts on the behaviors, and neuroendocrine and immune functions of the rats.
After adaptation for one week, the rats were randomly grouped. Except the normal group, the model groups were fed in individual cages and subjected to the uncertain stimulation of drinking by an empty bottle to establish the anxiety stress models. The specific method is as follows: the training of timely feeding water lasts for 7 days, that is, water was being given to the animals for 10 minutes every day at 9:00-9:10 and 17:00-17:10, and at other times, the water bottles were taken away, without water given. After the period of timely feeding water was ended, the stress-response experiment started, wherein the uncertain stimulation of the empty bottle was given once or twice a day in the above two periods of time for two weeks. The normal group was not subjected to any treatment, and was fed with water and food freely. The behaviors observed included attacking (biting or attacking the empty bottle and the cage), exploratory (moving around and visiting the place where the water bottle was located), and grooming behaviors (combing fur and washing face). The specific method was: the 10 minutes of the empty bottle stimulation was equally divided into 10 periods of time, the above-mentioned three types of behaviors of each rat were recorded in each period of time, wherein it was marked as “1” if the behavior appears, otherwise it was marked as “0”. The total score obtained in the observation within 10 minutes was between 0 and 10. […] The average score of the first 3 days and the last 3 days of the 14 observation days was used for statistical analysis. The samples were gathered when the experiment was ended to detect the neuroendocrine and immune indices.
The normal control group was not subjected to any treatment; all the other groups were subjected to the stimulation.
(§2) The following endocrine levels were detected in the test: (1) plasma cortisol concentration, (2) catecholamine level, (3) 5-hydroxytryptamine level.

[4] = tested on: Neurotransmitter in Hippocampus of Rat; test: CSM test, level of neurotransmitter in hippocampus; type: in vivo; conditions: dosage 3 mg/Kg
From the text: as §1
After adaptation for one week, the rats were randomly grouped. Except the normal group, the model groups were fed in individual cages and subjected to the uncertain stimulation of drinking by an empty bottle to establish the anxiety stress models. The specific method is as follows: the training of timely feeding water lasts for 7 days, that is, water was being given to the animals for 10 minutes every day at 9:00-9:10 and 17:00-17:10, and at other times, the water bottles were taken away, without water given. After the period of timely feeding water was ended, the stress-response experiment started, wherein the uncertain stimulation of the empty bottle was given once or twice a day in the above two periods of time for two weeks. The normal group was not subjected to any treatment, and was fed with water and food freely. The behaviors observed included attacking (biting or attacking the empty bottle and the cage), exploratory (moving around and visiting the place where the water bottle was located), and grooming behaviors (combing fur and washing face). The specific method was: the 10 minutes of the empty bottle stimulation was equally divided into 10 periods of time, the above-mentioned three types of behaviors of each rat were recorded in each period of time, wherein it was marked as “1” if the behavior appears, otherwise it was marked as “0”. The total score obtained in the observation within 10 minutes was between 0 and 10. […] The average score of the first 3 days and the last 3 days of the 14 observation days was used for statistical analysis. […]
as §2

[5] = tested on: Mouse; test: Elevated plus maze model (EPM) test; type: in vivo
From the text: The elevated plus maze has been widely used in anxiety experiments of the small rodent. This system is used to detect the situation of decreasing animals' inherent aversion to a high position and a open field, after using the anxiety drug. The rodent (e.g. rat, mouse), which have the exploratory behavior, will actively explore the open arms after placed in the elevated plus maze, but fear the high and open environment in the open arms. The antianxiety drug increases the open-arm exploratory activities, while the anxiety drug has the opposite effect.
The elevated plus maze has a pair of open arms and a pair of closed arms. The animal, after a period of time of adaptation, is rapidly placed in the central platform of the EPM in such a way that its head directly faces one of the open arms. A tracking camera is used to record following: (1) times of entering the open arm (open arm entry, OE) within 5 minutes, wherein it is considered as one time of entering an open arm when all the four paws of the rat have entered any open arm, and meanwhile this entry activity is finished when one paw completely withdraws from this arm; (2) duration of staying in an open arm (open arm time, OT) within 5 minutes, wherein the unit of the duration of staying in an open arm is “second”; (3) times of entering a closed arm (close arm entry, CE) within 5 minutes, wherein it is considered as one time of entering a closed arm when all the four paws of the rat have entered any closed arm; (4) duration of staying in a closed arm (close arm entry, CT) within 5 minutes, wherein the unit of duration of staying in a closed arm is “second”. The following is calculated from (1)-(4), respectively: […]
(1) the total number of the times of the open arm entry and the closed arm entry (OE+CE): representing the motion vitality of the rat;
(2) the ratio of the times of the open arm entry (OE %); the times of the open arm entry/(OE+CE)×100%;
(3) the ratio of the duration of staying in the open arms (OT %), i.e. the duration of staying in the open arms/(OT+CT)×100%. Each rat is tested for 5 minutes. OE % and OT % represent the indices of the antianxiety effect.

CN1C(=O)CN=C(c2ccccc2)c2cc(Cl)ccc21 [DZP, diazepam]
Times of Locomotor Activity 15-20 min (times) ([1]; 15-20 min after administration, dosage 3 mg/Kg, n=10, negative control 86 ± 35): 48 ± 46 times
Times of Locomotor Activity 30-35 min (times) ([1]; 30-35 min after administration, dosage 3 mg/Kg, n=10, negative control 64 ± 15, p<0.05): 32 ± 16 times
Times of Locomotor Activity 60-65 min (times) ([1]; 60-65 min after administration, dosage 3 mg/Kg, n=10, negative control 53 ± 9, p<0.05): 24 ± 6 times
times of locomotor activities of the mouse (in words) ([1]; with the dosage of administration): prominently reduce the times of locomotor activities of the mouse at the two periods of time, namely, 30 minutes and 60 minutes
Grooming Behavior (%) ([2]; negative control 2.38 ± 1.16): 1.78 ± 1.06%
Exploratory Behavior (%) ([2]; negative control 2.44 ± 0.88): 1.09 ± 0.52%
Attacking Behavior (%) ([2]; negative control 2.56 ± 2.09): 0.69 ± 0.52%
5-HT ([3]; n=10, negative control 0.86 ± 0.15, p<0.05): 1.12 ± 0.13 ng/mL
NE ([3]; n=10, negative control 1.15 ± 0.16): 1.00 ± 0.13 pg/mL
DA ([3]; n=10, negative control 5.45 ± 0.76): 6.00 ± 1.70 ng/mL
NA ([3]; n=10, negative control 15.08 ± 0.71): 14.67 ± 0.36 pg/mL
COR (cortisol) ([3]; n=10, negative control 49.94 ± 7.26, p<0.05): 28.94 ± 6.36 ng/mL
NE (norepinephrine) ([4]; n=10, negative control 0.104 ± 0.048): 0.080 ± 0.053 pg/mL
Dopamine ([4]; n=10, negative control 9.542 ± .93): 11.38 ± 4.33 ng/mL
NA ([4]; n=10, negative control 40.97 ± 13.25): 37.22 ± 10.05 pg/mL
OE + CE (times) ([5]; EPM 5 minutes, dosage 3 mg/Kg, n=10, mean±SD, negative control 10.8 ± 3.9): 12.9 ± 5.2 times
OT (%) ([5]; EPM 5 minutes, dosage 3 mg/Kg, n=10, negative control 20.1 ± 4.5, p<0.05): 42.3 ± 5.7 %
OE (%) ([5]; EPM 5 minutes, dosage 3 mg/Kg, n=10, negative control 22.8 ± 5.9, p<0.05): 40.9 ± 5.2 %
values of OT % and OE % and total number of the times of entering arms (in words) ([5]; EPM, with the dosage of administration): can increase the values of OT % and OE % without increasing the total number of the times of entering arms
